Reference: US20150337267A1, “REPROGRAMMED STEM CELL” (KYOTO UNIVERSITY, priority 2013, published 2015)

Assays:
iRS cells = assay: Conversion of iRS cells to DsRed-negative (pluripotent) cells in high-density culture; type: cell-based, human; settings: 0.5 mM added to MEF-conditioned medium, high-density culture (1×10^6 cells, 3 cm dish), day 6 after plating
Experimental: (§1) CM is conditioned medium.
The iRS cells were plated at a high density (1×10^6 cells) on a 3 cm dish coated with Matrigel, and culture was continued in a MEF-conditioned medium. From day 3, DsRed-negative cells were occasionally found, and DsRed-negative cell clump could be confirmed on day 6. On day 10, ES cell-like colony could be confirmed (FIG. 3A). The expression levels of exogenous OCT4 and SOX2 at that time were confirmed by quantitative PCR. Expression of exogenous gene disappeared on day 6 of high-density culture, and re-expression was void thereafter (FIG. 3B). Furthermore, the expression levels of the endogenous OCT4, TDGF1 and ECAD were confirmed by quantitative PCR. As a result, expression of these pluripotent marker genes was confirmed (FIG. 3C). Similarly, the mRNA expression levels of other pluripotent marker genes were confirmed on a heat map. As a result, mostly similar gene expression profiles were confirmed on day 6 and day 10 (FIG. 3D). Moreover, SSEA4 and ECAD, which are surface antigen markers showing pluripotency, were tested by an immunostaining method. As a result, both surface antigens could be recognized from day 6 (FIG. 3E). […]
iRS cells were plated at a high density (1×10^6 cells) on a 3 cm dish coated with Matrigel, 0.5 mM VPA was added to the MEF-conditioned medium and culture was continued. […] Phosphorylation of mTOR then was measured. […]

[1] = system: phosphorylated mTOR (p-mTOR); assay: Phosphorylation of mTOR in iRS cells; type: cell-based, human; settings: addition to conditioned medium, vs DMSO control
Experimental: as §1
iRS cells were plated at a high density (1×10^6 cells) on a 3 cm dish coated with Matrigel, 0.5 mM VPA was added to the MEF-conditioned medium and culture was continued. […] Phosphorylation of mTOR then was measured.

Q: With `CCCC(CCC)C(=O)[O-].[Na+]` [VPA, sodium valproate] as the compound, how does the “conversion rate to DsRed-negative cells” value (iRS cells) read?
A: strikingly high

Q: And the “amount of phosphorylated mTOR (p-mTOR)” value [1]?
A: increased
